Assay results: patent publication US9453244B2, “Method for producing a monoalkene by enzymatic conversion of an alkyl monoester” (Scientist of Fortune S.A., priority 2012, dated 2016)

Legend:
[1] = system: purified terpene synthases; test: Propylene production from propan-2-yl diphosphate with purified terpene synthases (headspace GC/FID); format: biochemical; conditions: 50 mM substrate, 5 mg terpene synthase in 0.5 ml, 37° C., 60 hours
Method: (§1) The enzymatic assays were carried out under the following conditions: 50 mM Tris-HCl pH 7.5 100 mM MgCl2 50 mM KCl 5 mM DTT 50 mM propan-2-yl diphosphate 5 mg of the terpene synthase was added to 0.5 ml of reaction mixture. An enzyme-free control reaction was carried out in parallel. Assays were incubated at 37° C. for 60 hours in a 1.5 ml sealed glass vial (Interchim) with shaking. One ml of the headspace phase was then collected and injected into a gas chromatograph Varian 430-GC equipped with a flame ionization detector (FID). Nitrogen was used as carrier gas with a flow rate of 1.5 mL/min. Volatile compounds were chromatographically separated on RT-Alumina Bond/Na2SO4 column (Restek) using an isothermal mode at 130° C. The enzymatic reaction product was identified by comparison with propylene standard (Sigma). Under these GC conditions, the retention time for propylene was 2.8 min. […] Gas chromatography-mass spectrometry (GC-MS) was then used to confirm the identity of the product detected by gas chromatography with flame ionization. The samples were analyzed on a Varian 3400 CX gas chromatograph equipped with Varian Saturn 3 mass selective detector. The mass spectrum of propylene obtained by enzymatic conversion of propan-2-yl diphosphate was similar to the one of commercial propylene (FIG. 3).

[2] = biological target: T1, isoprene synthase from Pueraria montana var. lobata (Pueraria montana var. lobata, UniProt Q6EJ97); test: GC-MS confirmation of propylene produced from propan-2-yl diphosphate in the enzymatic reaction; format: biochemical; conditions: FIG. 3
T1 construct: 6xHis (N); made in house; host or cells: E. coli BL21(DE3), pET 25b(+)
T1 sequence (Q6EJ97 46-608): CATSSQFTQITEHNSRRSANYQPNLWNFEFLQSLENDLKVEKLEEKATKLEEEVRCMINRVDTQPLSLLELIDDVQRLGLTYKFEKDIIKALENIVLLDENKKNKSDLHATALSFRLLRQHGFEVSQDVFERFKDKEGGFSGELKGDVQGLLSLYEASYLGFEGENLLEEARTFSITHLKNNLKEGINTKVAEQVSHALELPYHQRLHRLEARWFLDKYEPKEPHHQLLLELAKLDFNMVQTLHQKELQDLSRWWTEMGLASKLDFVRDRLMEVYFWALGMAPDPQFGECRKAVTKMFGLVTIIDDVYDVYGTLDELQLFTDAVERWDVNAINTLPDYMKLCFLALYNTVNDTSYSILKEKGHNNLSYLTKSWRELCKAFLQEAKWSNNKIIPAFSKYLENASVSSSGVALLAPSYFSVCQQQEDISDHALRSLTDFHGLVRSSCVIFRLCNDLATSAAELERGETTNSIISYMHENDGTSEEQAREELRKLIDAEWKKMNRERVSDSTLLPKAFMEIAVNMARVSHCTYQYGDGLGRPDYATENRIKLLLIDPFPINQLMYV
Method: as §1, with “5” for “The enzymatic assays were carried out under the following conditions: 50 mM Tris-HCl pH 7.5 100 mM MgCl2 50 mM KCl 5 mM DTT 50 mM propan-2-yl diphosphate 5”

Substance: propan-2-yl diphosphate
- propylene production from the substrate (enzymatic conversion) ([1]; pH 7.5): significant production of propylene
- propylene production from the substrate (enzymatic conversion) ([1]; pH 7.5, listed as propan-2-yl): able to convert propan-2-yl into propylene
- propylene produced from the substrate, identity confirmed by mass spectrum [2]: propylene produced
